From patent US20220040150A1, “I[…] ADMI[…] FOR DMT-ASSISTED PSYCHOTHERAPY” (Universitatsspital Basel, priority 2020, published 2022)
“Also recorded” adds a separate entry of the source. Like-named read-outs stand apart in the source and are kept apart here.

How the values were obtained:
healthy subjects [1] = assay: Example 1 clinical study: adverse effects and list of complaints
Method: Identical placebo (saline) was prepared.
Adverse effects and list of complaints: The list of complaints (LC) consists of 66 items offering a global score measuring physical and general discomfort (Zerssen, 1976). The LC list is administered before and at the end of the session with reference to complaints throughout the entire session.

[2] = system: healthy subjects with previous hallucinogen experience; settings: cited from earlier work
[3] = system: experienced hallucinogen-using volunteers; settings: 0.3 mg/kg iv at half-hour intervals 4 times in a morning; cited from earlier work
5-HT1 receptor = target: T1, 5-HT1 receptor (Homo sapiens, UniProt P08908); settings: in contrast to psilocybin; cited from earlier work
T1 sequence (P08908 1-422): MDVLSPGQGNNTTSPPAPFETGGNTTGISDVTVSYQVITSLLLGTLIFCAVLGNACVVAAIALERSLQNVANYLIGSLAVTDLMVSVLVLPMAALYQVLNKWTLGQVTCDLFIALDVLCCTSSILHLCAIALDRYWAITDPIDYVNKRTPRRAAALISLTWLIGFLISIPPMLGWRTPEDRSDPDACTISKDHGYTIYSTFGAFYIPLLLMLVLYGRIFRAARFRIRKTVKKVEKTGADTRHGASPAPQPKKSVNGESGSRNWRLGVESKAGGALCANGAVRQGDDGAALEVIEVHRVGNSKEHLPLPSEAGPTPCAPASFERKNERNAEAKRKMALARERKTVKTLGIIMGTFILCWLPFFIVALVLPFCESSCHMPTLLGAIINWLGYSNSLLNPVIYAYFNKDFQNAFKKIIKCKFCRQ

[4] = cited from earlier work
[5] = cited from earlier work; remark: listed apart in the source
healthy volunteers = settings: cited from earlier work
[6] = 0.4 mg/kg iv bolus, cited from earlier work
[7] = system: healthy subjects with previous hallucinogen experience; settings: cited from earlier work; remark: listed apart in the source
[8] = 2 minutes after iv bolus of 14 mg (approximately 0.2 mg/kg); cited from earlier work
[9] = 0.3 mg/kg iv, cited from earlier work
[10] = 25 mg (0.3 mg/kg) bolus over 30 seconds; cited from earlier work
healthy subjects [11] = assay: Example 1 clinical study: subjective effects rating over time
[12] = perfusion with placebo bolus, two subjects

CN(C)CCc1c[nH]c2ccccc12 [DMT, N,N-dimethyltryptamine]
relevant adverse effects (healthy subjects [1]; Example 1): did not result in relevant adverse effects
safety of administration (healthy subjects [1]; Example 1): safe
highest dose still well-tolerated by the study population (healthy subjects [1]; perfusion rate, Example 1): 1 mg of DMT/min
reported complaints (healthy subjects [1]; perfusion without bolus, two subjects): lack of appetite; also recorded: tiredness, palpitations, cold feet, and dry mouth
threshold dose for hallucinogenic effects ([2]; iv bolus): 0.2 mg/kg
time to peak of effects after injection ([2]; iv bolus): ≤ 2 min
time within which effects resolved ([2]; iv bolus): 20 to 30 min
hallucinogenic effect ([2]; lower doses (0.05, 0.1 mg/kg) iv bolus): not hallucinogenic
hallucinogenic effect ([2]; two higher doses of 0.2 and 0.4 mg/kg iv bolus): fully hallucinogenic
Tolerance to the subjective effects of DMT [3]: did not occur
affinity to the 5-HT1 receptor (5-HT1 receptor): greater affinity
duration of action ([4]; administered parenterally): less than 20 min
activity when administered orally ([4]; oral, without MAO inhibition): inactive
Plasma levels of DMT ([5]; 10 minutes before start of second dose, 110 minutes after stopping the first infusion): 5 ± 3 ng/mL
Mean plasma levels of DMT ([5]; high dose: bolus 0.3 mg/kg, then infusion 0.02 mg/kg/min): 60 ± 28 ng/mL
Mean plasma levels of DMT ([5]; low dose: bolus 0.2 mg/kg over 5 minutes, then infusion 0.015 mg/kg/min over 84 minutes): 43 ± 26 ng/mL
time within which subjective effects subsided (healthy volunteers; after stopping infusion): ≤ 20 min
subjects who stopped after the first DMT dose due to adverse responses (healthy volunteers; among the 15 subjects): 3
persons reporting visual hallucinations (healthy volunteers; high dose): all participants
time for adverse effects to vanish from stopping the infusion (healthy volunteers; in vivo): within a few minutes
persons reporting visual hallucinations (healthy volunteers; low dose, 15 healthy volunteers): seven
lasting complaints at interviews (healthy volunteers; seven days and 12 months after the experiments): no lasting complaints
subjects reporting tiredness and headache in the evening of the experiment (healthy volunteers; subjects who received DMT): 10 out of 13
Blood levels of DMT base ([6]; 2 minutes): ~90 ng/mL
Blood levels of DMT base ([6]; 5 minutes): ~42 ng/mL
Blood levels of DMT base ([6]; 10 minutes): ~28 ng/mL
Blood levels of DMT base ([6]; 15 minutes): ~17 ng/mL
Blood levels of DMT base ([6]; 30 minutes): ~5 ng/mL
Average heart rate ([7]; at 2 minutes): 100 beats/min
mean arterial blood pressure ([7]; at 2 minutes): 108 mm Hg
blood pressure, heart rate, pupil size, body core temperature, blood levels of ACTH, cortisol, PRL, β-endorphin and growth hormone ([7]; iv bolus): increased
DMT blood concentrations [8]: approximately 56 ng/mL
blood DMT levels ([9]; after 2 minutes): ~70 ng/mL
blood DMT levels ([9]; after 5 minutes): ~50 ng/mL
blood DMT levels ([9]; after 10 minutes): ~30 ng/mL
blood DMT levels ([9]; after 15 minutes): ~18 ng/mL
effect site concentration (simulated) [10]: over 100 ng/mL
initial plasma concentration spike (simulated) [10]: over 200 ng/mL
duration of the psychedelic state (healthy subjects [11]; 90 minutes perfusion): approximately 90 minutes
time to new steady state after starting the perfusion (healthy subjects [11]; available data from Example 1): approximately 20 minutes
ratings of bad drug effects and anxiety (healthy subjects [11]; bolus and perfusion, 2-5 minutes after the bolus): small increases
ratings of any drug effects (healthy subjects [11]; bolus and perfusion, mean in three subjects): maximal within seconds
ratings of good drug effects (healthy subjects [11]; bolus and perfusion, three subjects): maximal immediately after the DMT bolus administration and up to 30 minutes
bad drug effects and anxiety ratings (healthy subjects [11]; perfusion with placebo bolus): no bad drug effects and no anxiety
time over which good drug effects steadily increased after start of the perfusion (healthy subjects [11]; perfusion with placebo bolus): 30 min
time to disappearance of good drug effects after stopping the perfusion (healthy subjects [11]; perfusion with placebo bolus): less than 10 minutes
description of the DMT experience (healthy subjects [11]; perfusion with placebo bolus, dose used in the example): overall similar to LSD at a moderate dose of 0.05-0.1 mg LSD base
time over which any drug effects steadily increased after starting the perfusion (healthy subjects [11]; [12]): 30 min
time to disappearance of effect after perfusion ended at 90 minutes (healthy subjects [11]; [12]): less than 10 minutes
